Data as given in patent publication US20020137929A1, “1 - (3-heterocyclylphenyl) isothiourea, -isourea, -guanidine and -amidine herbicidal agents” (Intellectual Property Department, BASF Aktiengesellschaft, priority 1998, published 2002).

Columns and labels:
[1] = test system: ECHORC (Watergrass (Calif.)); assay: Postemergence weed control under flooded paddy conditions; assay type: in vivo, Echinochloa oryzoides; details: postemergence weeds, rated 3 to 4 weeks after treatment
Procedure, shortened: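 Weeds 3 to 5 cm tall and rice seedlings at the 1.5 to 2.5 leaf stage were flooded, with water held 1.5 to 3 cm above the soil. Compounds in 50/50 v/v aqueous/acetone went into the flood water at about 0.0313 to 0.500 kg/ha. Visual 0-9 ratings versus control were made 3 to 4 weeks later.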

[2] = test system: ECHCG (Barnyardgrass); assay: Postemergence herbicidal evaluation; assay type: in vivo, Echinochloa crus-galli; details: postemergence
Procedure, shortened: (§1)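 First, seedlings were raised for around two weeks. Next, test material in 50/50 acetone/water containing 0.5% TWEEN 20 was sprayed through a nozzle at 40 psi, equivalent to about 0.0156–0.500 kg/ha. Finally, after 4–5 weeks in the greenhouse, plants were rated 0–9.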

[3] = test system: IPOHE (Morningglory, Ivyleaf); assay: Preemergence herbicidal evaluation; assay type: in vivo, Ipomoea hederacea; details: rated 4-5 weeks after treatment
Procedure, shortened: (§2)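 Rating at 4–5 wk post-spray on a 0–9 visual scale vs control. Application: aqueous acetone, ~0.0156–0.500 kg/ha, to soil surface after seeding, preemergence.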

[4] = test system: AMBEL (Ragweed, Common); assay: Postemergence herbicidal evaluation; assay type: in vivo, Ambrosia artemisifolia; details: postemergence
Procedure, shortened: as §1

[5] = test system: GALAP (Galium); assay: Preemergence herbicidal evaluation; assay type: in vivo, Galium aparine; details: rated 4-5 weeks after treatment
Procedure, shortened: as §2

[6] = test system: SETVI (Foxtail, Green); assay: Postemergence herbicidal evaluation; assay type: in vivo, Setaria viridis; details: postemergence
Procedure, shortened: as §1

[7] = test system: GLXMAW (Soybean, Williams); assay: Postemergence herbicidal evaluation; assay type: in vivo, Glycine max, (L.) Merr. cv Williams; details: postemergence
Procedure, shortened: as §1

[8] = test system: ABUTH (Velvetleaf); assay: Postemergence herbicidal evaluation; assay type: in vivo, Abutilon theophrasti; details: postemergence
Procedure, shortened: as §1

[9] = test system: ZEAMX (Corn, Field); assay: Preemergence herbicidal evaluation; assay type: in vivo, Zea mays; details: rated 4-5 weeks after treatment
Procedure, shortened: as §2

[10] = test system: CASOB (Sicklepod); assay: Preemergence herbicidal evaluation; assay type: in vivo, Cassia obtusifolia; details: rated 4-5 weeks after treatment
Procedure, shortened: as §2

[11] = test system: ECHCG (Barnyardgrass); assay: Preemergence herbicidal evaluation; assay type: in vivo, Echinochloa crus-galli; details: rated 4-5 weeks after treatment
Procedure, shortened: as §2

[12] = test system: CHEAL (Lambsquarters, Common); assay: Preemergence herbicidal evaluation; assay type: in vivo, Chenopodium album; details: rated 4-5 weeks after treatment
Procedure, shortened: as §2

[13] = test system: IPOHE (Morningglory, Ivyleaf); assay: Postemergence herbicidal evaluation; assay type: in vivo, Ipomoea hederacea; details: postemergence
Procedure, shortened: as §1

[14] = test system: TRZAWR (Wheat, Winter, cv Riband); assay: Postemergence herbicidal evaluation; assay type: in vivo, Triticum aestivum; details: postemergence
Procedure, shortened: as §1

## CC(C)S(=O)(=O)NC(=O)CC1SC(=Nc2cc(-n3c(=O)cc(C(F)(F)F)n(C)c3=O)c(F)cc2Cl)N(C)C1=O (stereo not drawn) [Compound 119, 2-{{2-Chloro-5-[3,6-dihydro-3-methyl-2,6-dioxo-4-(trifluoromethyl)-1(2H)-pyrimidinyl]-4-fluorophenyl}imino}-N-(isopropylsulfonyl)-3-methyl-4-oxo-5-thiazolidineacetamide]
[1]; Rate 0.0313 kg/ha
  Herbicidal rating ECHORC: 0.0
[1]; Rate 0.0625 kg/ha
  Herbicidal rating ECHORC: 2.0
[1]; Rate 0.1250 kg/ha
  Herbicidal rating ECHORC: 4.0
[1]; Rate 0.2500 kg/ha
  Herbicidal rating ECHORC: 4.0
[2]; rate 0.0156 kg/ha
  Herbicidal rating ECHCG: 0.0
[2]; rate 0.0313 kg/ha
  Herbicidal rating ECHCG: 0.0
[2]; rate 0.0625 kg/ha
  Herbicidal rating ECHCG: 1.0
[3]; rate 0.0156 kg/ha
  Preemergence herbicidal rating IPOHE: 0.0
[3]; rate 0.0313 kg/ha
  Preemergence herbicidal rating IPOHE: 0.0
[3]; rate 0.0625 kg/ha
  Preemergence herbicidal rating IPOHE: 0.0
[3]; rate 0.1250 kg/ha
  Preemergence herbicidal rating IPOHE: 9.0
[3]; rate 0.2500 kg/ha
  Preemergence herbicidal rating IPOHE: 9.0
[4]; rate 0.0156 kg/ha
  Herbicidal rating AMBEL: 9.0
[4]; rate 0.0313 kg/ha
  Herbicidal rating AMBEL: 9.0
[4]; rate 0.0625 kg/ha
  Herbicidal rating AMBEL: 9.0
[5]; rate 0.0156 kg/ha
  Preemergence herbicidal rating GALAP: 0.0
[5]; rate 0.0313 kg/ha
  Preemergence herbicidal rating GALAP: 0.0
[5]; rate 0.0625 kg/ha
  Preemergence herbicidal rating GALAP: 0.0
[5]; rate 0.1250 kg/ha
  Preemergence herbicidal rating GALAP: 0.0
[5]; rate 0.2500 kg/ha
  Preemergence herbicidal rating GALAP: 4.0
[6]; rate 0.0156 kg/ha
  Herbicidal rating SETVI: 3.0
[6]; rate 0.0313 kg/ha
  Herbicidal rating SETVI: 9.0
[6]; rate 0.0625 kg/ha
  Herbicidal rating SETVI: 9.0
[7]; rate 0.0156 kg/ha
  Herbicidal rating GLXMAW: 7.0
[7]; rate 0.0313 kg/ha
  Herbicidal rating GLXMAW: 8.5
[7]; rate 0.0625 kg/ha
  Herbicidal rating GLXMAW: 8.5
[8]; rate 0.0156 kg/ha
  Herbicidal rating ABUTH: 9.0
[8]; rate 0.0313 kg/ha
  Herbicidal rating ABUTH: 9.0
[8]; rate 0.0625 kg/ha
  Herbicidal rating ABUTH: 9.0
[9]; rate 0.0156 kg/ha
  Preemergence herbicidal rating ZEAMX: 0.0
[9]; rate 0.0313 kg/ha
  Preemergence herbicidal rating ZEAMX: 0.0
[9]; rate 0.0625 kg/ha
  Preemergence herbicidal rating ZEAMX: 0.0
[9]; rate 0.1250 kg/ha
  Preemergence herbicidal rating ZEAMX: 0.0
[9]; rate 0.2500 kg/ha
  Preemergence herbicidal rating ZEAMX: 1.0
[10]; rate 0.0156 kg/ha
  Preemergence herbicidal rating CASOB: 0.0
[10]; rate 0.0313 kg/ha
  Preemergence herbicidal rating CASOB: 0.0
[10]; rate 0.0625 kg/ha
  Preemergence herbicidal rating CASOB: 0.0
[10]; rate 0.2500 kg/ha
  Preemergence herbicidal rating CASOB: 3.0
[11]; rate 0.0156 kg/ha
  Preemergence herbicidal rating ECHCG: 0.0
[11]; rate 0.0313 kg/ha
  Preemergence herbicidal rating ECHCG: 0.0
[11]; rate 0.0625 kg/ha
  Preemergence herbicidal rating ECHCG: 0.0
[11]; rate 0.1250 kg/ha
  Preemergence herbicidal rating ECHCG: 2.0
[11]; rate 0.2500 kg/ha
  Preemergence herbicidal rating ECHCG: 2.0
[12]; rate 0.0156 kg/ha
  Preemergence herbicidal rating CHEAL: 9.0
[12]; rate 0.0313 kg/ha
  Preemergence herbicidal rating CHEAL: 9.0
[12]; rate 0.0625 kg/ha
  Preemergence herbicidal rating CHEAL: 9.0
[12]; rate 0.1250 kg/ha
  Preemergence herbicidal rating CHEAL: 9.0
[12]; rate 0.2500 kg/ha
  Preemergence herbicidal rating CHEAL: 9.0
[13]; rate 0.0156 kg/ha
  Herbicidal rating IPOHE: 9.0
[13]; rate 0.0313 kg/ha
  Herbicidal rating IPOHE: 9.0
[13]; rate 0.0625 kg/ha
  Herbicidal rating IPOHE: 9.0
[14]; rate 0.0156 kg/ha
  Herbicidal rating TRZAWR: 2.5
[14]; rate 0.0313 kg/ha
  Herbicidal rating TRZAWR: 3.5
[14]; rate 0.0625 kg/ha
  Herbicidal rating TRZAWR: 3.5
